What was measured:
[1] = 101 kPa, Liquid; for viscosity: Capillary tube (Ostwald / Ubbelohde) method; for mass density: Pycnometric method
[2] = xn = mol fraction of the nth substance listed; conditions: 101 kPa, Liquid; for viscosity: Capillary tube (Ostwald / Ubbelohde) method; for mass density: Pycnometric method

CCCCCC [hexane]
[1]
Conditions | mass density [kg/m3] | viscosity [mPa·s]
293.15 K | 659.9 | 0.319
298.15 K | 655.3 | 0.304
303.15 K | 650.8 | 0.29

C1CCCCC1 [cyclohexane]
[1]
Conditions | mass density [kg/m3] | viscosity [mPa·s]
293.15 K | 778.6 | 0.984
298.15 K | 773.9 | 0.903
303.15 K | 769.2 | 0.83

C1CCCCC1 [cyclohexane] + CCCCC(CC)COP(=O)(OCC(CC)CCCC)OCC(CC)CCCC
[2], x2 = 0
Conditions | mass density [kg/m3] | viscosity [mPa·s]
293.15 K | 778.6 | 0.984
298.15 K | 773.9 | 0.903
303.15 K | 769.2 | 0.83

CCCCC(CC)COP(=O)(OCC(CC)CCCC)OCC(CC)CCCC (stereo not given) [tris(2-ethylhexyl) phosphate] + C1CCCCC1
[2]
Conditions | mass density, 293.15 K [kg/m3] | mass density, 298.15 K [kg/m3] | mass density, 303.15 K [kg/m3] | viscosity, 293.15 K [mPa·s] | viscosity, 298.15 K [mPa·s] | viscosity, 303.15 K [mPa·s]
x1 = 0.0997 | 823.7 | 819.4 | 815.1 | 1.709 | 1.544 | 1.404
x1 = 0.1995 | 852.5 | 848.3 | 844.2 | 2.71 | 2.423 | 2.176
x1 = 0.2978 | 871.1 | 867.1 | 863.1 | 3.894 | 3.415 | 3.025
x1 = 0.4007 | 885.8 | 881.8 | 877.9 | 5.246 | 4.532 | 3.948
x1 = 0.4965 | 895.8 | 892 | 888 | 6.629 | 5.665 | 4.896
x1 = 0.582 | 902.8 | 899 | 895.1 | 7.908 | 6.682 | 5.732
x1 = 0.6955 | 910.4 | 906.6 | 902.8 | 9.64 | 8.09 | 6.862
x1 = 0.7732 | 914.6 | 910.8 | 907 | 10.8 | 9.002 | 7.619
x1 = 0.8997 | 920.2 | 916.5 | 912.6 | 12.64 | 10.5 | 8.806
x1 = 1 | 923.8 | 920.1 | 916.4 | 14.09 | 11.62 | 9.708

CCCCCC [hexane] + CCCCC(CC)COP(=O)(OCC(CC)CCCC)OCC(CC)CCCC
[2], x2 = 0
Conditions | mass density [kg/m3] | viscosity [mPa·s]
293.15 K | 659.9 | 0.319
298.15 K | 655.3 | 0.304
303.15 K | 650.8 | 0.29

CCCCC(CC)COP(=O)(OCC(CC)CCCC)OCC(CC)CCCC (stereo not given) [tris(2-ethylhexyl) phosphate]
[1]
Conditions | mass density [kg/m3] | viscosity [mPa·s]
293.15 K | 923.8 | 14.09
298.15 K | 920.1 | 11.62
303.15 K | 916.4 | 9.708

CCCCC(CC)COP(=O)(OCC(CC)CCCC)OCC(CC)CCCC (stereo not given) [tris(2-ethylhexyl) phosphate] + CCCCCC
[2]
Conditions | mass density, 293.15 K [kg/m3] | mass density, 298.15 K [kg/m3] | mass density, 303.15 K [kg/m3] | viscosity, 293.15 K [mPa·s] | viscosity, 298.15 K [mPa·s] | viscosity, 303.15 K [mPa·s]
x1 = 0.1027 | 739.4 | 735.2 | 730.9 | 0.638 | 0.594 | 0.56
x1 = 0.1999 | 789.2 | 785 | 780.9 | 1.103 | 1.019 | 0.948
x1 = 0.2976 | 823.2 | 819 | 815 | 1.754 | 1.608 | 1.475
x1 = 0.4047 | 851.5 | 847.5 | 843.5 | 2.753 | 2.485 | 2.246
x1 = 0.5005 | 869.7 | 865.8 | 861.9 | 3.881 | 3.438 | 3.053
x1 = 0.5889 | 883.6 | 879.6 | 875.8 | 5.1 | 4.479 | 3.923
x1 = 0.7133 | 898.9 | 895.3 | 891.4 | 7.34 | 6.247 | 5.405
x1 = 0.8032 | 908.3 | 904.5 | 900.8 | 9.121 | 7.73 | 6.583
x1 = 0.8907 | 916.3 | 912.6 | 908.9 | 11.18 | 9.353 | 7.935
x1 = 1 | 923.8 | 920.1 | 916.4 | 14.09 | 11.62 | 9.708

From the NIST ThermoML archive (doi:10.1021/je8006138)
